Test results as given in PMC10914731, “Homo-BacPROTAC-induced degradation of ClpC1 as a strategy against drug-resistant mycobacteria” (Nature Communications, 2024).
“And” between values parts separate entries of the source, which are not always exact repeats. Equal values may be shown once. Read-outs that look alike come from different tables or passages of the source.

What was measured:
[1] = system: Mycobacterium fortuitum; experiment: microbe, parasite or virus in culture; type: cell-based
[2] = system: Mtb H37Rv; experiment: Minimum bactericidal concentration (MBC), Mtb H37Rv; type: cell-based, Mycobacterium tuberculosis; settings: for MBC: Mycobacterium tuberculosis, H37RV
[3] = system: Mtb H37Rv in THP-1 macrophages; experiment: Intracellular MIC assay in THP-1 macrophages; type: cell-based, Mycobacterium tuberculosis; set-up: Emax: unit not given here
[4] = system: Mtb # 11291; experiment: microbe, parasite or virus in culture; type: cell-based
[5] = target: ClpC1 NTD protein (M. tuberculosis) (Mycobacterium tuberculosis, UniProt P9WPC9); experiment: biochemical; type: binding; settings: SPR
ClpC1 NTD protein (M. tuberculosis), sequence (P9WPC9 1-156, looked up, natural form): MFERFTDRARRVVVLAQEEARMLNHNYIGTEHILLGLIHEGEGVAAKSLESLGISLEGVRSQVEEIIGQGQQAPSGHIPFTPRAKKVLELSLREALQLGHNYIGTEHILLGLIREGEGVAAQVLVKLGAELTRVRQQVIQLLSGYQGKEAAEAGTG

[6] = target: endogenous ClpC1 in Msm #607 cells (Mycolicibacterium smegmatis, UniProt A0R574); type: cell-based, M. smegmatis; settings: for ClpC1/Total protein / ClpC1 peak area / Total protein: well replicates of independent experiments
endogenous ClpC1 in Msm #607 cells, sequence (A0R574 whole entry): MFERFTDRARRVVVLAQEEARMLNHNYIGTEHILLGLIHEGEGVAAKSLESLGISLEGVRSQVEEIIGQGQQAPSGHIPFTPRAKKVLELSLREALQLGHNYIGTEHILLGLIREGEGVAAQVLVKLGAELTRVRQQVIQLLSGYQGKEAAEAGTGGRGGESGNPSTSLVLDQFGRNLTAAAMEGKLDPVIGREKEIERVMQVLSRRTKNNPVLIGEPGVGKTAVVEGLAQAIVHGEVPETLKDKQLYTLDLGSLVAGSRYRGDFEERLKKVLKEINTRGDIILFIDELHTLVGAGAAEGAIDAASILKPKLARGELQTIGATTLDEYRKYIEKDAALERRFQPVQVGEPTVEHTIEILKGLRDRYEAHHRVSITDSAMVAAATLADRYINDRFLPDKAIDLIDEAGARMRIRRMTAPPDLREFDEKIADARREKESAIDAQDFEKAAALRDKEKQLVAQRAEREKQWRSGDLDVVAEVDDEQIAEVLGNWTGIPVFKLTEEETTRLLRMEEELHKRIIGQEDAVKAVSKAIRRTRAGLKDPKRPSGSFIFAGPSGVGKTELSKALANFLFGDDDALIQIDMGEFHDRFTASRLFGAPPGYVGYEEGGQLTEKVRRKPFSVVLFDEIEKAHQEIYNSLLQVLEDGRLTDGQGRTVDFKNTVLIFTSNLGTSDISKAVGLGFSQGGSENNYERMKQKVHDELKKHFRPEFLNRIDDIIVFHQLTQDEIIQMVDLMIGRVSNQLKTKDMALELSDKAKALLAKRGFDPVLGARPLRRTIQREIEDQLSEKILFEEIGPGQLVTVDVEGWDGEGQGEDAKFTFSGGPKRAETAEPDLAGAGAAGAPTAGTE

[7] = in vivo; type: in vivo, BALB/cAnNCrl mice
Protocol: The in-life experimental procedures were conducted in strict compliance with German and European animal welfare legislation in an AAALAC-accredited facility. Male BALB/cAnNCrl mice (Charles River Laboratories Research Models and Services, 97633 Sulzfeld, Germany) were used. Animals were 9 weeks old at dosing with a body weight of 21.6–24.3 g. Animals were delivered free of pathogens according to FELASA recommendations with a health certificate provided by the breeder. Upon receipt, the state of health and sex was checked. Animals acclimatized for at least 5 days before the commencement of the in-life phase. During acclimation, animals were group-housed in individually ventilated cages, on birch wood granulate bedding with species-specific enrichment (nesting material, mouse igloo, gnawing wood). During experimental conduct, animals were housed in conventional cages with elevated grid floors. Grid floor was used to avoid contamination with test item material excreted via urine and feces and subsequent reuptake during fur grooming. No bedding and enrichment were provided except a cage divider, which can be used as a shelter. Animals always had unlimited access to food and water and received a pelleted, total pathogen-free maintenance diet and tap drinking water, sterilized by filter.
On the day before dosing, test item(s) were suspended in kleptose (20% in WFI) under continuous stirring (3.0 mg/ml). Following 2 min vortexing and 1 h stirring, the formulation was sonicated at 60 °C for 30 min and stirred at ambient temperature overnight. Before dosing, the formulation was vortexed for 2 min followed by ultraturrax treatment for 2 min.
Male BALB/cAnNCrl mice (n = 3 per test item and administration route) received a bolus dose of the formulated test item(s) (1 mg/kg iv, 30 mg/kg po) at t = 0 h, and whole blood samples were collected subsequently (35 µl at 0.1 (iv) / 0.25 (po), 0.5, 1, 2, 4, 6 h; 600 µl at sacrifice after 24 h). Animals were euthanized by exsanguination in deep isoflurane anesthesia. Whole blood samples were immediately stored on ice at about 4 °C. Plasma was separated by centrifugation at approximately 10,000 × g for 5 m at +4 °C. Centrifugation of each blood sample was started within 10 m after collection. A single aliquot of at least 15 µL of plasma was prepared and immediately stored at −20 ± 5 °C.
Sample proteins were precipitated with ACN (1 + 12, v/v) containing internal standard, and supernatants analyzed by quantitative UPLC-MS/MS: Phenomenex Luna Omega C18, 2.1 × 50 mm, 1.6 µm, 40 °C, gradient between 10% - 90% ACN with 0.1% formic acid. LogD determination: Lipophilicity of the test items, expressed as chromLogD7.5, was assessed by measuring their chromatographic retention times on C18-material. The chromatographic retention versus logD7.5 values of a series of thirteen n-alkan-2-ones (2-butanone – 2-hexadecanone) served as lipophilicity calibration.

[8] = system: Acinetobacter baumannii; experiment: MIC ESKAPES panel, Acinetobacter baumannii; type: cell-based
Protocol: Minimum inhibitory concentration (MIC) against ESKAPES panel of Gram positive and Gram negative pathogens (Enterococcus faecium, Staphylococcus aureus, Klebsiella pneumoniae, Acinetobacter baumannii, Pseudomonas aeruginosa, Enterobacter cloacae and Salmonella typhimurium [ESKAPES panel]) were determined at the FNDR by the standard broth dilution method [CLSI, M100]. […] Mueller Hinton broth (MHB) medium was used to grow ESKAPES panel strains. The individual cultures were added as 200 μL (inoculum of 3–7 × 10^5 cfu/ml) to the respective assay plates in each well to all columns, except the media control (200 μL of medium). […] The assay plates were incubated at 37 °C, and the results were noted on the 2nd day as turbidometric readout. The clear wells indicated inhibition of growth, while the turbid wells indicated uninhibited growth.

[9] = oral gavage 30 mg/kg, mice, Mean, BLOQ <1.00 nmol/L

COC(c1ccccc1)C1NC(=O)C(C)NC(=O)C(CC(C)CO)N(C)C(=O)C(Cc2cn(Cc3cn(CCOCCOCCOCCOCCn4cc(Cn5cc(CC6NC(=O)C(C(C)C)NC(=O)C(CC(C)C)N(C)C(=O)C(C(C)C)NC(=O)C(C(OC)c7ccccc7)NC(=O)C(C)NC(=O)C(CC(C)CO)N(C)C6=O)c6ccccc65)nn4)nn3)c3ccccc23)NC(=O)C(C(C)C)NC(=O)C(CC(C)C)N(C)C(=O)C(C(C)C)NC1=O (centres unmarked) [Compound 8]
MIC ([1]; Experiment 1, listed as 8 (UdSBI-0545), read-out: MIC Mycobacterium fortuitum): >50 µM
MIC (µg/ml) Mycobacterium fortuitum ([1]; Experiment 2, three replicate columns): >108.53 µg/mL
MIC ([1]; Experiment 2, three replicate columns, read-out: MIC (µM) Mycobacterium fortuitum): >50 µM
MIC ([1]; Mycolicibacterium fortuitum, Experiment 1, read-out: MIC Mycobacterium fortuitum): > 109 µg/mL
MIC ([1]; Mycolicibacterium fortuitum, Experiment 2, three replicate columns, read-out: MIC (µM) Mycobacterium fortuitum): > 50 µM
MIC ([1]; Mycolicibacterium fortuitum, Experiment 2, three replicate columns, read-out: MIC (µg/ml) Mycobacterium fortuitum): > 109 µg/mL
MIC ([1]; Mycolicibacterium fortuitum, mean ± SD, read-out: MIC Mycobacterium fortuitum): > 50 µM
colony growth after replating (MBC assay) ([2]; Mtb H37Rv, result in words): did not form any colonies at concentrations at or above the MIC value
MBC ([2]; read-out: MBC (from Set 3) Mtb H37Rv): 0.22 µg/mL and 0.1 µM
MBC ([2]; individual example, read-out: MBC Mtb H37Rv): 0.1 µM and 0.2 µg/mL
Emax [3]: 1.27
intracellular viable mycobacteria ([3]; 0.19µM, Day 4, well replicates): 5.45 log10 cfu/ml
intracellular viable mycobacteria ([3]; 0.19µM, Day 7, well replicates): 5.56 log10 cfu/ml
intracellular viable mycobacteria ([3]; 0.781µM, Day 4, well replicates): 4.88 log10 cfu/ml
intracellular viable mycobacteria ([3]; 0.781µM, Day 7, well replicates): 4.81 log10 cfu/ml
intracellular viable mycobacteria ([3]; 3.125µM, Day 4, well replicates): 4.56 log10 cfu/ml
intracellular viable mycobacteria ([3]; 3.125µM, Day 7, well replicates): 4.31 log10 cfu/ml and 4.3 log10 cfu/ml
intracellular viable mycobacteria ([3]; 50µM, Day 4, well replicates): 4.3 log10 cfu/ml
intracellular viable mycobacteria ([3]; 50µM, Day 7, well replicates): 3.92 log10 cfu/ml and 3.9 log10 cfu/ml
MIC ([4]; Mycobacterium tuberculosis, mean, n = 2 well replicates, read-out: MIC Mtb # 11291): < 0.1 µM and < 0.2 µg/mL
MIC ([4]; Mycobacterium tuberculosis, read-out: MIC Mtb # 11291, single well replicates): < 0.1 µM and < 0.21 µg/mL
MIC Mtb # 11291 ([4]; single well replicates, listed as 8 (UdSBAI-0545)): <0.21 µg/mL
MIC ([4]; single well replicates, listed as 8 (UdSBAI-0545), read-out: MIC Mtb # 11291): <0.1 µM
Kd ([5]; individual measurements (source data), listed as 8 (UdSBI-0545), read-out: KD ClpC1-NTD): 0.325 nM and 0.439 nM and 0.567 nM and 0.381 nM
Kd ([5]; read-out: ClpC1-NTD KD Mean ± SD): 0.4 ± 0.1 nM
DC50 ([6]; 24 hours, value of the earlier manuscript version quoted in the peer review file, read-out: average DC50, ClpC1 degradation): 571 nM
DC50 ([6]; Msm #607, 24 h of incubation, read-out: average DC50, endogenous ClpC1 degradation): 570 ± 400 nM
ClpC1/Total protein ([6]; conc. 0.00038147 µM): 0.2282 and 0.267 and 0.2648 and 0.2027 and 0.212 and 0.2298 and 0.7429 and 0.8229 and 0.7712
ClpC1 peak area ([6]; conc. 0.00038147 µM): 294811 and 344226 and 322628 and 390018 and 426373 and 358944 and 302120 and 328285 and 319637
Total protein ([6]; conc. 0.00038147 µM): 1323644 and 1229496 and 1207050 and 1454716 and 1623647 and 1404254 and 524970 and 518103 and 465460
ClpC1/Total protein ([6]; conc. 0.00305176 µM): 0.2394 and 0.2569 and 0.2557 and 0.2218 and 0.1962 and 0.1042 and 0.78 and 0.7556 and 0.8129
ClpC1 peak area ([6]; conc. 0.00305176 µM): 298033 and 275548 and 121574 and 410944 and 384208 and 424052 and 320906 and 252067 and 328696
Total protein ([6]; conc. 0.00305176 µM): 1340459 and 981268 and 1285339 and 1343857 and 1404470 and 1166366 and 526872 and 508500 and 521664
ClpC1/Total protein ([6]; conc. 0.0244141 µM): 0.2203 and 0.2456 and 0.2539 and 0.1932 and 0.1901 and 0.2179 and 0.789 and 0.7808 and 0.8172
ClpC1 peak area ([6]; conc. 0.0244141 µM): 219991 and 270896 and 315004 and 406280 and 373553 and 423254 and 300752 and 349284 and 304692
Total protein ([6]; conc. 0.0244141 µM): 1364922 and 1422232 and 1199890 and 1138728 and 1425365 and 1445718 and 514950 and 478415 and 517944
ClpC1/Total protein ([6]; conc. 0.195312 µM): 0.1965 and 0.2082 and 0.2171 and 0.1985 and 0.1828 and 0.1625 and 0.6454 and 0.6178 and 0.5924
ClpC1 peak area ([6]; conc. 0.195312 µM): 206233 and 279281 and 214864 and 343404 and 327767 and 310653 and 236077 and 257791 and 242759
Total protein ([6]; conc. 0.195312 µM): 1201296 and 1238340 and 1118172 and 1039169 and 1528116 and 1322136 and 532053 and 530512 and 524388
ClpC1/Total protein ([6]; conc. 1.5625 µM): 0.183 and 0.1832 and 0.1776 and 0.1788 and 0.1391 and 0.1421 and 0.6251 and 0.5883 and 0.5813
ClpC1 peak area ([6]; conc. 1.5625 µM): 199828 and 195826 and 198204 and 278984 and 250174 and 259931 and 291643 and 223291 and 227414
Total protein ([6]; conc. 1.5625 µM): 1593808 and 1218853 and 1280312 and 1117747 and 1407385 and 1394918 and 446304 and 425280 and 447143
ClpC1/Total protein ([6]; conc. 100 µM): 0.09806 and 0.1539 and 0.02961 and 0.1406 and 0.1399 and 0.1212 and 0.4923 and 0.5713 and 0.5017
ClpC1 peak area ([6]; conc. 100 µM): 152582 and 201776 and 136372 and 183701 and 277792 and 199452 and 19555.5 and 216020 and 1024.1
Total protein ([6]; conc. 100 µM): 199420 and 1403452 and 34585.2 and 1085305 and 1442135 and 1125592 and 373184 and 486260 and 397564
DC50 ([6]; mean of the measurements, read-out: DC50 Mean): 571 nM
Plasma concentration 0.5 h [7, 9]: 19.4 nM
Plasma concentration 1 h [7, 9]: 18.1 nM
Plasma concentration 2 h [7, 9]: 26.0 nM
Plasma concentration 4 h [7, 9]: 31.8 nM
Plasma concentration 6 h [7, 9]: 32.5 nM
Plasma concentration 24 h [7, 9]: 96.7 nM
Plasma concentration […] [7, 9]: 25.7 nM
Plasma concentration 24 h ([7]; oral gavage, individual animals 1-3, BLOQ <1.00 nmol/L, listed as 8 (UdSBI-0545)): 101 nM and 92.4 nM
Cmax/Dose ([7]; oral gavage, mice, Mean): 10.4 nM/nmol/kg
tmax ([7]; oral gavage, mice, Mean): 24.0 h
AUC0-t/Dose ([7]; oral gavage, mice, Mean (compound 6: maximum potential value with 1 nM for each time point)): 165 h*nM/nmol/kg
MIC ([8]; Gram negative, n = 3 well replicates, read-out: MIC Acinetobacter baumanii): > 50 µM
MIC ([8]; Gram-Negative Bacteria, replicates 1-3, read-out: MIC Acinetobacter baumannii): > 50 µM and > 109 µg/mL
